In the supplement of paper PMC11451515:

Key:
Conditions in all cases: 48 h
P12-Ichikawa [1] = assay: cell viability relative to DMSO control; higher = less cytotoxic
Summary of the method: (§1)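 NOMO1, SEM and P12-Ichikawa leukemia cells spent at least four passages adapting to each medium before use. They were seeded at 500 cells/well (NOMO1, SEM) or 1000 cells/well (P12-Ichikawa) in 5 μl in 1536-well plates and pin-dosed with library compounds in DMSO at 11 threefold steps from 47 μM down to 0.79 nM. After 48 h at 37°C, CellTiter-Glo One luminescence was read. Viability is reported as a percentage of the DMSO wells on each plate, with cell-free wells as background.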

SEM cells [2] = assay: as above
Summary of the method: as §1

NOMO1 [3] = assay: as above
Summary of the method: as §1

P12-Ichikawa [4] = assay: AUC of viability dose-response curve (% viability x log10 dose units); higher = less sensitive
Summary of the method: (§2)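 Viability of medium-adapted leukemia cells was measured by CellTiter-Glo One luminescence after 48 h at 37°C with library compounds in DMSO. Doses were 11 threefold steps from 47 μM to 0.79 nM, in 1536-well plates at 500 or 1000 cells/well. Signals were normalised per plate to DMSO and cell-free wells and fitted with a four-parameter log-logistic model on log10 dose. Area under the curve was integrated by trapezoidal rule, with curves exceeding full viability scaled and failed quality-control curves removed.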

SEM cells [5] = assay: as above
Summary of the method: as §2

NOMO1 [6] = assay: as above
Summary of the method: as §2

NC(=O)c1cnc(-c2ccc(C3(N)CCC3)cc2)c(-c2ccccc2)c1
cell viability [%]
Conditions | NOMO1 [3] | P12-Ichikawa [1] | SEM cells [2]
HPLM + 10% dialyzed FBS, 0.000781 µM | – | – | 110
HPLM + 10% dialyzed FBS, 0.00234 µM | – | – | 120
HPLM + 10% dialyzed FBS, 0.00702 µM | – | – | 137
HPLM + 10% dialyzed FBS, 0.0211 µM | – | – | 111
HPLM + 10% dialyzed FBS, 0.0632 µM | – | – | 111
HPLM + 10% dialyzed FBS, 0.19 µM | – | – | 127
HPLM + 10% dialyzed FBS, 0.569 µM | – | – | 133
HPLM + 10% dialyzed FBS, 1.71 µM | – | – | 90.7
HPLM + 10% dialyzed FBS, 5.12 µM | – | – | 73.2
HPLM + 10% dialyzed FBS, 15.4 µM | – | – | 50.3
HPLM + 10% dialyzed FBS, 46.1 µM | – | – | 30.9
RPMI 5 mM glucose + 10% FBS, 0.000781 µM | 119 | 118 | 120
RPMI 5 mM glucose + 10% FBS, 0.00234 µM | 117 | 126 | 134
RPMI 5 mM glucose + 10% FBS, 0.00702 µM | 126 | 115 | 123
RPMI 5 mM glucose + 10% FBS, 0.0211 µM | 117 | 111 | 106
RPMI 5 mM glucose + 10% FBS, 0.0632 µM | 136 | 115 | 108
RPMI 5 mM glucose + 10% FBS, 0.19 µM | 122 | 134 | 127
RPMI 5 mM glucose + 10% FBS, 0.569 µM | 128 | 121 | 130
RPMI 5 mM glucose + 10% FBS, 1.71 µM | 132 | 116 | 85.1
RPMI 5 mM glucose + 10% FBS, 5.12 µM | 127 | 111 | 78
RPMI 5 mM glucose + 10% FBS, 15.4 µM | 131 | 80.4 | 43.2
RPMI 5 mM glucose + 10% FBS, 46.1 µM | 76.9 | 67.9 | 24.5
RPMI 5 mM glucose + 10% dialyzed FBS, 0.000781 µM | – | – | 121
RPMI 5 mM glucose + 10% dialyzed FBS, 0.00234 µM | – | – | 125
RPMI 5 mM glucose + 10% dialyzed FBS, 0.00702 µM | – | – | 127
RPMI 5 mM glucose + 10% dialyzed FBS, 0.0211 µM | – | – | 120
RPMI 5 mM glucose + 10% dialyzed FBS, 0.0632 µM | – | – | 123
RPMI 5 mM glucose + 10% dialyzed FBS, 0.19 µM | – | – | 120
RPMI 5 mM glucose + 10% dialyzed FBS, 0.569 µM | – | – | 133
RPMI 5 mM glucose + 10% dialyzed FBS, 1.71 µM | – | – | 91.5
RPMI 5 mM glucose + 10% dialyzed FBS, 5.12 µM | – | – | 67
RPMI 5 mM glucose + 10% dialyzed FBS, 15.4 µM | – | – | 43.5
RPMI 5 mM glucose + 10% dialyzed FBS, 46.1 µM | – | – | 35.9

AUC of viability dose-response curve
Conditions | NOMO1 [6] | P12-Ichikawa [4] | SEM cells [5]
HPLM + 10% dialyzed FBS | 428 | 428 | 400
RPMI 5 mM glucose + 10% FBS | 468 | 448 | 396
RPMI 5 mM glucose + 10% dialyzed FBS | 460 | 432 | 394

Cc1cc(-c2nnc3n2CCCCC3)c(C)n1-c1ccccc1
cell viability [%]
Conditions | NOMO1 [3] | P12-Ichikawa [1] | SEM cells [2]
HPLM + 10% dialyzed FBS, 0.000781 µM | 116 | 120 | 110
HPLM + 10% dialyzed FBS, 0.00234 µM | 122 | 117 | 116
HPLM + 10% dialyzed FBS, 0.00702 µM | 136 | 122 | 115
HPLM + 10% dialyzed FBS, 0.0211 µM | 131 | 119 | 123
HPLM + 10% dialyzed FBS, 0.0632 µM | 121 | 118 | 117
HPLM + 10% dialyzed FBS, 0.19 µM | 125 | 116 | 118
HPLM + 10% dialyzed FBS, 0.569 µM | 148 | 118 | 120
HPLM + 10% dialyzed FBS, 1.71 µM | 132 | 117 | 119
HPLM + 10% dialyzed FBS, 5.12 µM | 117 | 115 | 98.7
HPLM + 10% dialyzed FBS, 15.4 µM | 120 | 117 | 117
HPLM + 10% dialyzed FBS, 46.1 µM | 108 | 104 | 115
RPMI 5 mM glucose + 10% FBS, 0.000781 µM | 112 | – | 53.2
RPMI 5 mM glucose + 10% FBS, 0.00234 µM | 112 | – | 124
RPMI 5 mM glucose + 10% FBS, 0.00702 µM | 109 | – | 103
RPMI 5 mM glucose + 10% FBS, 0.0211 µM | 122 | – | 107
RPMI 5 mM glucose + 10% FBS, 0.0632 µM | 115 | – | 95.6
RPMI 5 mM glucose + 10% FBS, 0.19 µM | 120 | – | 107
RPMI 5 mM glucose + 10% FBS, 0.569 µM | 118 | – | 124
RPMI 5 mM glucose + 10% FBS, 1.71 µM | 114 | – | 126
RPMI 5 mM glucose + 10% FBS, 5.12 µM | 117 | – | 109
RPMI 5 mM glucose + 10% FBS, 15.4 µM | 116 | – | 115
RPMI 5 mM glucose + 10% FBS, 46.1 µM | 110 | – | 102
RPMI 5 mM glucose + 10% dialyzed FBS, 0.000781 µM | 115 | 125 | 113
RPMI 5 mM glucose + 10% dialyzed FBS, 0.00234 µM | 120 | 119 | 114
RPMI 5 mM glucose + 10% dialyzed FBS, 0.00702 µM | 110 | 118 | 140
RPMI 5 mM glucose + 10% dialyzed FBS, 0.0211 µM | 114 | 125 | 131
RPMI 5 mM glucose + 10% dialyzed FBS, 0.0632 µM | 124 | 118 | 95.3
RPMI 5 mM glucose + 10% dialyzed FBS, 0.19 µM | 113 | 119 | 127
RPMI 5 mM glucose + 10% dialyzed FBS, 0.569 µM | 116 | 124 | 136
RPMI 5 mM glucose + 10% dialyzed FBS, 1.71 µM | 121 | 126 | 135
RPMI 5 mM glucose + 10% dialyzed FBS, 5.12 µM | 111 | 122 | 114
RPMI 5 mM glucose + 10% dialyzed FBS, 15.4 µM | 122 | 109 | 126
RPMI 5 mM glucose + 10% dialyzed FBS, 46.1 µM | 120 | 111 | 107

AUC of viability dose-response curve
Conditions | NOMO1 [6] | P12-Ichikawa [4] | SEM cells [5]
HPLM + 10% dialyzed FBS | 464 | 464 | 470
RPMI 5 mM glucose + 10% FBS | 473 | 462 | 424
RPMI 5 mM glucose + 10% dialyzed FBS | 470 | 470 | 472

C[N]1N=CC2=C1C=C(C(=C2)OC3=CC=C(NC(=O)\C4=C\C=C(\C)N(C4=O)C5=CC=C(F)C=C5)C=C3F)C6=C[NH]N=C6
cell viability [%]
Conditions | NOMO1 [3] | P12-Ichikawa [1] | SEM cells [2]
HPLM + 10% dialyzed FBS, 0.000781 µM | 107 | 99.5 | 98.7
HPLM + 10% dialyzed FBS, 0.00234 µM | 131 | 113 | 93.2
HPLM + 10% dialyzed FBS, 0.00702 µM | 117 | 117 | 94.4
HPLM + 10% dialyzed FBS, 0.0211 µM | 126 | 114 | 94.5
HPLM + 10% dialyzed FBS, 0.0632 µM | 133 | 114 | 62.3
HPLM + 10% dialyzed FBS, 0.19 µM | 141 | 127 | 54
HPLM + 10% dialyzed FBS, 0.569 µM | 132 | 123 | 48.3
HPLM + 10% dialyzed FBS, 1.71 µM | 125 | 104 | 43
HPLM + 10% dialyzed FBS, 5.12 µM | 86.1 | 78.1 | 11.1
HPLM + 10% dialyzed FBS, 15.4 µM | 25.3 | 12 | 6.77
HPLM + 10% dialyzed FBS, 46.1 µM | 15.6 | 8.97 | 7.19
RPMI 5 mM glucose + 10% FBS, 0.000781 µM | 113 | 104 | 91.5
RPMI 5 mM glucose + 10% FBS, 0.00234 µM | 112 | 109 | 100
RPMI 5 mM glucose + 10% FBS, 0.00702 µM | 111 | 115 | 96.6
RPMI 5 mM glucose + 10% FBS, 0.0211 µM | 121 | 117 | 84.3
RPMI 5 mM glucose + 10% FBS, 0.0632 µM | 127 | 127 | 54.7
RPMI 5 mM glucose + 10% FBS, 0.19 µM | 107 | 130 | 56.1
RPMI 5 mM glucose + 10% FBS, 0.569 µM | 116 | 130 | 59.1
RPMI 5 mM glucose + 10% FBS, 1.71 µM | 118 | 128 | 38.9
RPMI 5 mM glucose + 10% FBS, 5.12 µM | 104 | 78.9 | 9.63
RPMI 5 mM glucose + 10% FBS, 15.4 µM | 16.4 | 16.1 | 8.07
RPMI 5 mM glucose + 10% FBS, 46.1 µM | 11.9 | 10.5 | 8.6
RPMI 5 mM glucose + 10% dialyzed FBS, 0.000781 µM | 121 | 119 | 98.5
RPMI 5 mM glucose + 10% dialyzed FBS, 0.00234 µM | 117 | 123 | 105
RPMI 5 mM glucose + 10% dialyzed FBS, 0.00702 µM | 118 | 130 | 97.8
RPMI 5 mM glucose + 10% dialyzed FBS, 0.0211 µM | 108 | 125 | 89.4
RPMI 5 mM glucose + 10% dialyzed FBS, 0.0632 µM | 122 | 124 | 54.5
RPMI 5 mM glucose + 10% dialyzed FBS, 0.19 µM | 125 | 138 | 52.1
RPMI 5 mM glucose + 10% dialyzed FBS, 0.569 µM | 124 | 129 | 50.8
RPMI 5 mM glucose + 10% dialyzed FBS, 1.71 µM | 115 | 128 | 43.7
RPMI 5 mM glucose + 10% dialyzed FBS, 5.12 µM | 100 | 90.2 | 11.4
RPMI 5 mM glucose + 10% dialyzed FBS, 15.4 µM | 30 | 26.6 | 7.29
RPMI 5 mM glucose + 10% dialyzed FBS, 46.1 µM | 16.2 | 16.3 | 7.53

AUC of viability dose-response curve
Conditions | NOMO1 [6] | P12-Ichikawa [4] | SEM cells [5]
HPLM + 10% dialyzed FBS | 401 | 396 | 268
RPMI 5 mM glucose + 10% FBS | 410 | 397 | 266
RPMI 5 mM glucose + 10% dialyzed FBS | 413 | 404 | 255
